Reference: patent publication US6566403B1 (priority 1997, dated 2003)
Read-outs that look alike come from different tables or passages of the source.

Assays:
Pythium ultimum = assay: Fungitoxicity assay against Pythium ultimum (mycelial dry weight, liquid broth); assay type: cell-based; conditions: for Relative Effectiveness against Pythium ultimum: EC50 of racemic mixture divided by EC50 of the enantiomer, growth 48 hours at 25° C.
Protocol: (§1) A series of dilutions of each test compound was prepared in dimethyl sulfoxide, and 0.1 ml of each dilution was added to 19.9 ml of a liquid asparagine-sucrose broth (Erwin, D. C. and Katznelson, K., 1971, Can. J. Microbiol. 7, 15) in 9 cm diameter petri dishes to give the desired concentrations of test compound in the medium. Each plate was inoculated with a mycelial plug, 7 mm in diameter, taken from the growing edge of a culture of Pythium ultimum grown on potato dextrose agar. Two replicate plates were used for each treatment. The increase in mycelial dry weight was determined after growth for 48 hours at 25° C. with shaking on a gyrotary shaker at 60 rpm. Pythium EC50 values were calculated from dose response curves. As used herein, the terminology “EC50” means the concentration of test compound required to inhibit growth by 50% as compared to a control lacking the test compound.
(§2) In order to compare the activity of individual isomers with that of the corresponding racemic mixture, the relative effectiveness of each compound was calculated. As used herein, relative effectiveness means the EC50 value for a racemic mixture of the particular compound divided by the EC50 value for one enantiomer. The relative effectiveness of the racemic mixture itself is 1.0.

Botrytis cinerea [1] = assay: Fungitoxicity assay against Botrytis cinerea (colony diameter on agar); assay type: cell-based; conditions: EC50 of racemic mixture divided by EC50 of the enantiomer; 48 hours at 25° C.
Protocol: A series of dilutions of each test compound was prepared in dimethyl sulfoxide and 125 microliters […] of each dilution was added to 25 ml of molten potato dextrose agar to give the desired concentrations of test compound. The mixtures were poured immediately into 9 cm diameter petri dishes. Each plate was inoculated with a 7 mm diameter mycelial plug taken from the growing edge of a 5 day old culture of B. cinerea grown on potato dextrose agar.
as §2

Phytophthora capsici = assay: Fungitoxicity assay against Phytophthora capsici (mycelial dry weight, liquid broth); assay type: cell-based; conditions: EC50 of racemic mixture divided by EC50 of the enantiomer; growth 96 h
Protocol: as §1
The procedure described above for Pythium ultimum was used except that the mycelial plugs used for inoculation were taken from the growing edge of cultures of Phytophthora capsici grown on V-8 juice agar, pH 7.0, containing 200 ml V-8 juice, 4 g CaCO3, and 20 g agar per liter, and the increase in mycelial dry weight was determined after growth for 96 h.
as §2

Phytophthora infestans [2] = assay type: in vivo; conditions: tomato seedlings, treated before inoculation, 6 days after inoculation
Plasmopara viticola [3] = assay: Grape Downy Mildew (GDM); assay type: in vivo; conditions: grape plants, treated before inoculation, scored after 7-8 days
Protocol: (§3) Cultures of Plasmopara viticola were maintained on grape seedlings derived from tissue culture. Leaves with sporulating mildew were rinsed in water to obtain the desired concentration of spores. A DeVilbiss atomizer was used to apply a suspension of spores to fungicide-treated lower leaves of the grape plants. The plants were kept in a humidity cabinet at 100% relative humidity for 24 hours and then placed in a controlled temperature chamber at 25° C. for 7-8 days before scoring. Disease evaluations were recorded as percent disease control.

Phytophthora infestans [4] = assay type: in vivo; conditions: tomato, compound applied two days after inoculation
Plasmopara viticola [5] = assay: Grape Downy Mildew-Curative (GDC); assay type: in vivo; conditions: compound applied two days after inoculation
Protocol: as §3
The curative properties of the test compounds were evaluated using the same procedure as that set forth above in the section entitled “GRAPE DOWNY MILDEW”, except that the test compound was applied to the plants two days after inoculation with the pathogen.

Botrytis cinerea [6] = assay: Gray Mold on Tomato-Curative (BOC); assay type: in vivo; conditions: tomato plants, compound applied 2 days after inoculation
Protocol: Botrytis cinerea cultures were maintained on potato dextrose agar. A dextrose solution was used to wash spores from sporulating cultures. A DeVilbiss atomizer was used to apply the resulting spore suspension to tomato plants. The plants were placed in a humidity cabinet at 100% relative humidity, and the test compound was applied to the plants after 2 days. The plants were returned to the humidity cabinet for a further 3-5 days before scoring. Disease evaluations were recorded as percent disease control.

For `CC[C@@](C)(NC(=O)c1cc(Cl)cc(Cl)c1)C(=O)CCl` [Compound 2, R enantiomer], the “Relative Effectiveness against Pythium ultimum” value (Pythium ultimum) was 0.055 and the “Relative Effectiveness against Botrytis cinerea” value (Botrytis cinerea [1]) was 0.17.
For `CC[C@](C)(NC(=O)c1cc(Cl)c(C)c(Cl)c1)C(=O)CCl` [Compound 1, S enantiomer, (S)-N-(3-chloro-1-ethyl-1-methyl-2-oxopropyl)-3,5-dichloro-4-methylbenzamide], the “Relative Effectiveness against Pythium ultimum” value (Pythium ultimum) was 2.18, the “Relative Effectiveness against Phytophthora capsici” value (Phytophthora capsici) was 2.13 and the “Relative Effectiveness against Botrytis cinerea” value (Botrytis cinerea [1]) was 2.03. The “TLB percent disease control” value (Phytophthora infestans [2]; 19 ppm) was 90%, the “TLB percent disease control” value (Phytophthora infestans [2]; 75 ppm) was 100% and the “TLB percent disease control” value (Phytophthora infestans [2]; 300 ppm) was 100%. The “GDM percent disease control” value (Plasmopara viticola [3]; 19 ppm) was 99%, the “GDM percent disease control” value (Plasmopara viticola [3]; 75 ppm) was 100% and the “GDM percent disease control” value (Plasmopara viticola [3]; 300 ppm) was 100%. The “TLC percent disease control” value (Phytophthora infestans [4]; 19 ppm) was 90%, the “TLC percent disease control” value (Phytophthora infestans [4]; 75 ppm) was 99% and the “TLC percent disease control” value (Phytophthora infestans [4]; 300 ppm) was 95%. The “GDC percent disease control” value (Plasmopara viticola [5]; 19 ppm) was 75%, the “GDC percent disease control” value (Plasmopara viticola [5]; 75 ppm) was 90% and the “GDC percent disease control” value (Plasmopara viticola [5]; 300 ppm) was 99%. For the same compound, the “BOC percent disease control” value (Botrytis cinerea [6]; 19 ppm) was 75%, the “BOC percent disease control” value (Botrytis cinerea [6]; 75 ppm) was 90% and the “BOC percent disease control” value (Botrytis cinerea [6]; 300 ppm) was 95%.
For `CC[C@](C)(NC(=O)c1cc(Cl)cc(Cl)c1)C(=O)CCl` [Compound 2, S enantiomer], the “Relative Effectiveness against Pythium ultimum” value (Pythium ultimum) was 2.68 and the “Relative Effectiveness against Botrytis cinerea” value (Botrytis cinerea [1]) was 1.85.
With `CCC(C)(NC(=O)c1cc(Cl)c(C)c(Cl)c1)C(=O)CCl` (racemic) [Compound 1, racemate] the “Relative Effectiveness against Pythium ultimum” value (Pythium ultimum) was 1.00, the “Relative Effectiveness against Phytophthora capsici” value (Phytophthora capsici) was 1.00 and the “Relative Effectiveness against Botrytis cinerea” value (Botrytis cinerea [1]) was 1.00. For the same compound, the “TLB percent disease control” value (Phytophthora infestans [2]; 19 ppm) was 85%, the “TLB percent disease control” value (Phytophthora infestans [2]; 75 ppm) was 100% and the “TLB percent disease control” value (Phytophthora infestans [2]; 300 ppm) was 95%. For the same compound, the “GDM percent disease control” value (Plasmopara viticola [3]; 19 ppm) was 99%, the “GDM percent disease control” value (Plasmopara viticola [3]; 75 ppm) was 100% and the “GDM percent disease control” value (Plasmopara viticola [3]; 300 ppm) was 100%. The “TLC percent disease control” value (Phytophthora infestans [4]; 19 ppm) was 80%, the “TLC percent disease control” value (Phytophthora infestans [4]; 75 ppm) was 90% and the “TLC percent disease control” value (Phytophthora infestans [4]; 300 ppm) was 95%. For the same compound, the “GDC percent disease control” value (Plasmopara viticola [5]; 19 ppm) was 50%, the “GDC percent disease control” value (Plasmopara viticola [5]; 75 ppm) was 50% and the “GDC percent disease control” value (Plasmopara viticola [5]; 300 ppm) was 90%. The “BOC percent disease control” value (Botrytis cinerea [6]; 19 ppm) was 50%, the “BOC percent disease control” value (Botrytis cinerea [6]; 75 ppm) was 75% and the “BOC percent disease control” value (Botrytis cinerea [6]; 300 ppm) was 90%.
`CC[C@@](C)(NC(=O)c1cc(Cl)c(C)c(Cl)c1)C(=O)CCl` [Compound 1, R enantiomer, (R)-N-(3-chloro-1-ethyl-1-methyl-2-oxopropyl)-3,5-dichloro-4-methylbenzamide] was tested, and the “Relative Effectiveness against Pythium ultimum” value (Pythium ultimum) was 0.037, the “Relative Effectiveness against Phytophthora capsici” value (Phytophthora capsici) was 0.0072 and the “Relative Effectiveness against Botrytis cinerea” value (Botrytis cinerea [1]) was <0.076. For the same compound, the “TLB percent disease control” value (Phytophthora infestans [2]; 19 ppm) was 25%, the “TLB percent disease control” value (Phytophthora infestans [2]; 75 ppm) was 50% and the “TLB percent disease control” value (Phytophthora infestans [2]; 300 ppm) was 75%. For the same compound, the “GDM percent disease control” value (Plasmopara viticola [3]; 19 ppm) was 0%, the “GDM percent disease control” value (Plasmopara viticola [3]; 75 ppm) was 0% and the “GDM percent disease control” value (Plasmopara viticola [3]; 300 ppm) was 0%. For the same compound, the “TLC percent disease control” value (Phytophthora infestans [4]; 19 ppm) was 0%, the “TLC percent disease control” value (Phytophthora infestans [4]; 75 ppm) was 0% and the “TLC percent disease control” value (Phytophthora infestans [4]; 300 ppm) was 0%. For the same compound, the “GDC percent disease control” value (Plasmopara viticola [5]; 19 ppm) was 0%, the “GDC percent disease control” value (Plasmopara viticola [5]; 75 ppm) was 0% and the “GDC percent disease control” value (Plasmopara viticola [5]; 300 ppm) was 0%. The “BOC percent disease control” value (Botrytis cinerea [6]; 19 ppm) was 0%, the “BOC percent disease control” value (Botrytis cinerea [6]; 75 ppm) was 0% and the “BOC percent disease control” value (Botrytis cinerea [6]; 300 ppm) was 0%.
For `CCC(C)(NC(=O)c1cc(Cl)cc(Cl)c1)C(=O)CCl` (racemic) [Compound 2, racemate], the “Relative Effectiveness against Pythium ultimum” value (Pythium ultimum) was 1.00 and the “Relative Effectiveness against Botrytis cinerea” value (Botrytis cinerea [1]) was 1.00.
In the case of `CCC(C)(NC(=O)c1cc(Cl)c(C)c(Cl)c1)C(=O)CCl` (stereo not drawn) [Compound 1], the “Relative Effectiveness (expected) against Pythium ultimum” value (“Relative Effectiveness (expected)” below) (Pythium ultimum; 50 % S in the Mixture of racemate and S enantiomer) is reported as 1.000, the “Relative Effectiveness (expected)” value (Pythium ultimum; 60 % S in the Mixture of racemate and S enantiomer) is reported as 1.236 and the “Relative Effectiveness (expected)” value (Pythium ultimum; 70 % S in the Mixture of racemate and S enantiomer) is reported as 1.472. The “Relative Effectiveness (expected)” value (Pythium ultimum; 80 % S in the Mixture of racemate and S enantiomer) was 1.708, the “Relative Effectiveness (expected)” value (Pythium ultimum; 90 % S in the Mixture of racemate and S enantiomer) was 1.944 and the “Relative Effectiveness (expected)” value (Pythium ultimum; 100 % S in the Mixture of racemate and S enantiomer) was 2.180.
